Patent publication US8334304B2, “Aminosulfonyl substituted 4-(aminomethyl)-piperidine benzamides as 5HT4-antagonists” (Janssen Pharmaceutica N.V., priority 2003, dated 2012)
Counter-ions that a name gives are not always drawn. Like-named read-outs stand apart in the source and are kept apart here.

Legend:
[1] = Metabolic stability: incubation with liver microsomes and NADPH-generating system, LC-MS; format: in vitro ADME; settings: compound 5 μM, microsomes 1 mg/ml, 37 degrees Celsius
Description: Sub-cellular tissue preparations were made according to Gorrod et al. (Xenobiotica 5: 453-462, 1975) by centrifugal separation after mechanical homogenization of tissue. Liver tissue was rinsed in ice-cold 0.1 M Tris-HCl (pH 7.4) buffer to wash excess blood. Tissue was then blotted dry, weighed and chopped coarsely using surgical scissors. The tissue pieces were homogenized in 3 volumes of ice-cold 0.1 M phosphate buffer (pH 7.4).
Tissue homogenates were centrifuged at 9000×g for 20 minutes at 4° C. The resulting supernatant was stored at −80° C. and is designated ‘S9’.
The S9 fraction can be further centrifuged at 100.000×g for 60 minutes (4° C.). The resulting supernatant was carefully aspirated, aliquoted and designated ‘cytosol’. The pellet was re-suspended in 0.1 M phosphate buffer (pH 7.4) in a final volume of 1 ml per 0.5 g original tissue weight and designated ‘microsomes’.
All sub-cellular fractions were aliquoted, immediately frozen in liquid nitrogen and stored at −80° C. until use.
Control samples contained the same material but the microsomes were replaced by heat inactivated (10 minutes at 95 degrees Celsius) microsomes. Recovery of the compounds in the control samples was always 100%.
The mixtures were preincubated for 5 minutes at 37 degrees Celsius. The reaction was started at time point zero (t=0) by addition of 0.8 mM NADP and the samples were incubated for 60 minutes (t=60). The reaction was terminated by the addition of 2 volumes of DMSO. Then the samples were centrifuged for 10 minutes at 900×g and the supernatants were stored at room temperature for no longer as 24 hours before analysis. All incubations were performed in duplo. Analysis of the supernatants was performed with LC-MS analysis. Elution of the samples was performed on a Xterra MS C18 (50×4.6 mm, 5 μm, Waters, US). An Alliance 2790 (Supplier: Waters, US) HPLC system was used. Elution was with buffer A (25 mM ammoniumacetate (pH 5.2) in H2O/acetonitrile (95/5)), solvent B being acetonitrile and solvent C methanol at a flow rate of 2.4 ml/min. The gradient employed was increasing the organic phase concentration from 0% over 50% B and 50% C in 5 min up to 100% B in 1 minute in a linear fashion and organic phase concentration was kept stationary for an additional 1.5 minutes. Total injection volume of the samples was 25 μl.
A Quatro triple quadrupole mass spectrometer fitted with and ESP source was used as detector. The source and the desolvation temperature were set at 120 and 350° C. respectively and nitrogen was used as nebuliser and drying gas. Data were acquired in positive scan mode (single ion reaction). Cone voltage was set at 10 V and the dwell time was 1 second.
Metabolic stability was expressed as % metabolism of the compound after 60 minutes (equation given as example) of incubation in the presence of active microsomes (E(act))

h5-HT4b = target: T1, h5-HT4b (Homo sapiens, UniProt Q13639); assay: 5HT4 antagonism: [3H]GR113808 binding to membranes of h5-HT4b-HEK 293 clone 9 cells; settings: 30 min at 25° C.
T1 construct: expressed in transfected cells; host or cells: HEK 293 (clone 9), membrane preparation
T1 sequence (Q13639 whole entry): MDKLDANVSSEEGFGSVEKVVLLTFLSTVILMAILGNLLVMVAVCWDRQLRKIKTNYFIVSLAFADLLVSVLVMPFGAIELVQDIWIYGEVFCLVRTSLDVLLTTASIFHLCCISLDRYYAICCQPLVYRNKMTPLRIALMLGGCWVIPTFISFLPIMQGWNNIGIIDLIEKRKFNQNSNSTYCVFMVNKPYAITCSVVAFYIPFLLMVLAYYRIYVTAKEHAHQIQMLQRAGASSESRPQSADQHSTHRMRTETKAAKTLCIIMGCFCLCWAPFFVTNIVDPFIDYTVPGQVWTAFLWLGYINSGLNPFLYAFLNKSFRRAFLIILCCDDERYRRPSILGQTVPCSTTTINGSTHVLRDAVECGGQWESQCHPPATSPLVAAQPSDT
Description: The cells were then scraped from the plates and suspended in 50 mM Tris-HCl buffer, pH 7.4 and harvested by centrifugation at 23,500 rpm for 10 minutes. The pellet was resuspended in 5 mM Tris-HCl, pH 7.4 and homogenized with an Ultra Turrax homogenizer. The membranes were collected by centrifugation at 30,000 rpm for 20 min, resuspended in 50 mM Tris-HCl pH 7.4 and stored at −80° C. […] 50 μl of 10% DMSO was added for total binding. 50 μl of 1 μM of (+)-trans-(1-butyl-3-hydroxy-4-piperidinyl)methyl 8-amino-7-chloro-2,3-dihydro-1,4-benzodioxin-5-carboxylate (a proprietary 5HT4 agonist of Janssen Pharmaceutica) was added for determination of non-specific binding. The [^3H]GR113808 assay buffer was 50 mM HEPES-NaOH, pH 7.4. The mixtures were incubated for 30 min at 25° C. The incubation was terminated by filtration over a Unifilter 96 GF/B presoaked in 0.1% polyethylenimine, followed by six washing steps with 50 mM HEPES-NaOH, pH 7.4.

[2] = displacement of 0.1 nM [3H]GR113808, membranes of h5-HT4b-HEK 293 cells, read-out: pIC50 (converted)

SMILES | % metabolised compound after 60 minutes [1] | IC50 (h5-HT4b; [2]) | melting point | IC50 (h5-HT4b; pIC50, displacement of 0.1 nM [3H]GR113808, membranes of h5-HT4b-HEK 293 cells)
COC1CN(CCCS(N)(=O)=O)CCC1CNC(=O)c1cc(C#N)cc2c1OCCCO2 (stereo not shown) [Compound 41] | – | 56.2 nM | – | –
NS(=O)(=O)CCCCN1CCC(CNC(=O)c2cc(Cl)c(Br)c3c2OCCCO3)C(O)C1 (stereo not shown) [Compound 31] | 18% | 0.891 nM | – | –
Cc1ccc(C(=O)NCC2CCN(CCCS(N)(=O)=O)CC2O)c2c1OCCCO2 (stereo not shown) [Compound 18] | 7% | 5.25 nM | – | –
O=C(NCC1CCN(CCCS(=O)(=O)Nc2ccccc2)CC1O)c1cc(Cl)cc2c1OCCCO2 (stereo not shown) [Compound 17] | – | 1.78 nM | – | –
CS(=O)(=O)NC(=O)CCCN1CC[C@@H](CNC(=O)c2cc(Cl)cc3c2OCCCO3)[C@H](O)C1 [Compound 15] | 36% | 35.5 nM | 110 °C | –
Nc1cc2c(c(C(=O)NC[C@@H]3CCN(CCCS(N)(=O)=O)C[C@H]3O)c1)OCCCO2 (relative stereo) [Compound 8] | – | 50.1 nM | 186 °C | –
COc1ccc(C(=O)NCC2(O)CCN(CCCCS(N)(=O)=O)CC2)c2c1OCCCO2 [Compound 47] | 0% | 100 nM | – | –
Cc1ccc(C(=O)NCC2CCN(CCCS(=O)(=O)NC(C)C)CC2O)c2c1OCCCO2 (stereo not shown) [Compound 13] | – | 3.39 nM | – | –
CC(C)NS(=O)(=O)CCCN1CCC(CNC(=O)c2cc(Cl)cc3c2OCCCO3)C(O)C1 (stereo not shown) [Compound 14] | – | 1.95 nM | – | –
NS(=O)(=O)CCCCN1CC[C@@H](CNC(=O)c2cc(Cl)c(Cl)c3c2OCCCO3)[C@H](O)C1 (relative stereo) [Compound 30] | 12% | 1.7 nM | – | –
COC1CN(CCCCS(N)(=O)=O)CCC1CNC(=O)c1cc(Cl)cc2c1OCCCO2 (stereo not shown) [Compound 45] | – | 1.38 nM | – | –
Cc1cc2c(c(C(=O)NC[C@@H]3CCN(CCCS(=O)(=O)Nc4ccccc4)C[C@H]3O)c1)OCCCO2 (relative stereo) [Compound 12] | – | 1.62 nM | – | –
COc1ccc(C(=O)NCC2CCN(CCCCS(N)(=O)=O)CC2O)c2c1OCCCO2 (stereo not shown) [Compound 40] | 0% | 158 nM | – | –
Cc1cc2c(c(C(=O)NCC3CCN(CCCS(N)(=O)=O)CC3O)c1)OCCCO2 (stereo not shown) [Compound 19] | 14% | 3.39 nM | – | –
NS(=O)(=O)CCCN1CCC(CNC(=O)c2cc(Cl)cc3c2OCCCO3)C(O)C1 (stereo not shown) [Compound 21] | 21% | 3.02 nM | – | –
NS(=O)(=O)CCCCN1CC[C@@H](CNC(=O)c2cc(F)cc3c2OCCCO3)[C@H](O)C1 [Compound 35] | 15% | 0.407 nM | – | –
Cc1ccc(C(=O)NC[C@@H]2CCN(CCCC(=O)NS(C)(=O)=O)C[C@H]2O)c2c1OCCCO2 (as salt: hydrochloride) [Compound 27] | – | – | 142 °C | –
NS(=O)(=O)CCCCN1CC[C@@H](CNC(=O)c2cc(F)cc3c2OCCO3)[C@H](O)C1 [Compound 7] | 3% | 1.86 nM | – | –
COc1ccc(C(=O)NCC2CCN(CCCCS(N)(=O)=O)CC2OC)c2c1OCCO2 (stereo not shown) [Compound 6] | 9% | 28.8 nM | – | –
NS(=O)(=O)CCN1CC[C@@H](CNC(=O)c2cc(Cl)cc3c2OCCCO3)[C@H](O)C1 [Compound 22] | 28.5% | – | 162 °C | 5.37 nM

More lines, now with the values ahead:

% metabolised compound after 60 minutes [1] | IC50 (h5-HT4b; [2]) | melting point | IC50 (h5-HT4b; pIC50, displacement of 0.1 nM [3H]GR113808, membranes of h5-HT4b-HEK 293 cells) | SMILES
6% | 20.9 nM | – | – | Cc1cc2c(c(C(=O)NCC3(O)CCN(CCCCS(N)(=O)=O)CC3)c1)OCCCO2 [Compound 48]
8% | 5.75 nM | – | – | Cc1ccc(C(=O)NC[C@@H]2CCN(CCS(N)(=O)=O)C[C@H]2O)c2c1OCCCO2 [Compound 23]
8.5% | 8.51 nM | – | – | Cc1cc2c(c(C(=O)NC[C@@H]3CCN(CCS(N)(=O)=O)C[C@H]3O)c1)OCCCO2 [Compound 25]
– | 4.17 nM | – | – | COC1CN(CCCS(N)(=O)=O)CCC1CNC(=O)c1cc(F)cc2c1OCCCO2 (stereo not shown) [Compound 46]
13% | 0.676 nM | – | – | NS(=O)(=O)CCCCN1CC[C@@H](CNC(=O)c2cc(Cl)cc3c2OCCCO3)[C@H](O)C1 [Compound 26]
– | 1.7 nM | – | – | COC1CN(CCCCS(N)(=O)=O)CCC1CNC(=O)c1cc(Cl)c(Br)c2c1OCCCO2 (stereo not shown) [Compound 43]
5% | 12 nM | – | – | Cc1ccc(C(=O)NC[C@@H]2CCN(CCCC(=O)NS(C)(=O)=O)C[C@H]2O)c2c1OCCCO2 [Compound 27]
2% | 4.68 nM | – | – | Cc1cc2c(c(C(=O)NCC3CCN(CCCCS(N)(=O)=O)CC3O)c1)OCCCO2 (stereo not shown) [Compound 20]
0% | 3.63 nM | – | – | COc1ccc(C(=O)NC[C@@H]2CCN(CCCCS(N)(=O)=O)C[C@H]2O)c2c1OCCCO2 [Compound 32]
3% | 11.2 nM | – | – | Cc1cc2c(c(C(=O)NCC3CCN(CCCCS(N)(=O)=O)CC3O)c1)OCCCO2 (stereo not shown) [Compound 38]
– | 2.19 nM | – | – | CNS(=O)(=O)CCCN1CC[C@@H](CNC(=O)c2cc(Cl)cc3c2OCCCO3)[C@H](O)C1 (relative stereo) [Compound 33]
2% | 12.6 nM | – | – | NS(=O)(=O)CCCCN1CCC(CNC(=O)c2cc(F)cc3c2OCCCO3)C(O)C1 (stereo not shown) [Compound 39]
– | 3.98 nM | – | – | Cc1cc2c(c(C(=O)NC[C@@H]3CCN(CCCS(=O)(=O)NC(C)C)C[C@H]3O)c1)OCCCO2 (relative stereo) [Compound 11]
– | 1.29 nM | – | – | Cc1ccc(C(=O)NCC2CCN(CCCS(=O)(=O)Nc3ccccc3)CC2O)c2c1OCCCO2 (stereo not shown) [Compound 10]
27% | 3.72 nM | – | – | CO[C@@H]1CN(CCCCS(N)(=O)=O)CC[C@H]1CNC(=O)c1cc(F)cc2c1OCCCO2 (relative stereo) [Compound 44]
– | 1.51 nM | – | – | COC1CN(CCCCS(N)(=O)=O)CCC1CNC(=O)c1cc(Cl)c(Cl)c2c1OCCCO2 (stereo not shown) [Compound 42]
53% | 2.88 nM | – | – | CNS(=O)(=O)CCCN1CCC(CNC(=O)c2cc(C)cc3c2OCCCO3)C(O)C1 (stereo not shown) [Compound 24]
– | 1.15 nM | – | – | CNS(=O)(=O)CCCN1CC[C@@H](CNC(=O)c2ccc(C)c3c2OCCCO3)[C@H](O)C1 [Compound 34]
